Values of other authors in US9421238B2 (priority 2013, dated 2016).
Like-named read-outs stand apart in the source and are kept apart here.

Settings: rat, CO-60 in liver

For `N[C@@H](CCC(=O)N[C@@H](CS)C(=O)NCC(=O)O)C(=O)O` [Plain glutathione, glutathione], the removal of toxin (intravenous administration) is given as 64%, the removal of toxin (oral administration) is given as 0% and the toxin remained/remaining (oral administration) is given as 100%.
